The nature of data set [1]: Cytotoxicity against human HepG2(2.2.15) cells. Format: cell-based.
The subject of data set [2] is Hepatitis B virus. In words: Antiviral activity against HBV assessed as inhibition of viral surface antigen secretion. Type of data set: functional, organism-based.
In data set [3] the test system is Hepatitis B virus. In words: Antiviral activity against HBV assessed as inhibition of viral early antigen secretion. Format: functional, organism-based.
Data set [4] is described as follows: Selectivity index, ratio of CC50 for human HepG2(2.2.15) cells to IC50 for HBV early antigen secretion. Format: functional.

Bounds are passed on as bounds.

Usually CC50 stands for the concentration at which the toxic effect on the cells reaches its halfway point. A higher CC50 goes with lower toxicity to the cells. One may read the IC50 as the concentration needed to halve the response being measured.

In data set [1], `C[C@H](C[C@H](OC(=O)[C@H]1CCC(=O)O1)[C@@H](OC(=O)[C@H]1CCC(=O)O1)C(C)(C)OC(=O)[C@@H]1CCC(=O)O1)C1=C2C[C@H](OC(=O)[C@@H]3CCC(=O)O3)[C@H]3[C@@]4(C)CCC(=O)C(C)(C)[C@@H]4CC[C@]3(C)[C@@]2(C)CC1` displayed a CC50 of over 1600 µM. Besides, the IC50 in data set [2] and in data set [3] was over 1600 µM in each case.
`CCCCCCCC(=O)O[C@@H](C[C@@H](C)C1=C2C[C@H](OC(=O)CCCCCCC)[C@H]3[C@@]4(C)CCC(=O)C(C)(C)[C@@H]4CC[C@]3(C)[C@@]2(C)CC1)[C@@H](OC(=O)CCCCCCC)C(C)(C)OC(=O)CCCCCCC` returned a CC50 in data set [1] of over 1600 µM. Further, the IC50 in data set [2] and in data set [3] was over 1600 µM each time.
Molecule `CCCC(=O)O[C@@H](C[C@@H](C)C1=C2C[C@H](OC(=O)CCC)[C@H]3[C@@]4(C)CCC(=O)C(C)(C)[C@@H]4CC[C@]3(C)[C@@]2(C)CC1)[C@@H](OC(=O)CCC)C(C)(C)OC(=O)CCC` yielded a CC50 in data set [1] of over 1800 µM. Moreover, the IC50 is over 1800 µM in data set [2] and 1800 µM in data set [3].
In data set [1], `CC(C)CC(=O)O[C@@H](C[C@@H](C)C1=C2C[C@H](OC(=O)CC(C)C)[C@H]3[C@@]4(C)CCC(=O)C(C)(C)[C@@H]4CC[C@]3(C)[C@@]2(C)CC1)[C@@H](OC(=O)CC(C)C)C(C)(C)OC(=O)CC(C)C` displayed a CC50 of over 2000 µM. In addition, the IC50 in data set [2] and in data set [3] was over 2000 µM throughout.
Molecule `C[C@H](C[C@H](OC(=O)c1ccccc1I)[C@@H](OC(=O)c1ccccc1I)C(C)(C)OC(=O)c1ccccc1I)C1=C2C[C@H](OC(=O)c3ccccc3I)[C@H]3[C@@]4(C)CCC(=O)C(C)(C)[C@@H]4CC[C@]3(C)[C@@]2(C)CC1` showed a CC50 in data set [1] of over 1400 µM. For the same molecule, the IC50 in data set [2] and in data set [3] was over 1400 µM each time.
The molecule `C[C@H](C[C@H](OC(=O)c1cccc([N+](=O)[O-])c1)[C@@H](OC(=O)c1cccc([N+](=O)[O-])c1)C(C)(C)OC(=O)c1cccc([N+](=O)[O-])c1)C1=C2C[C@H](OC(=O)c3cccc([N+](=O)[O-])c3)[C@H]3[C@@]4(C)CCC(=O)C(C)(C)[C@@H]4CC[C@]3(C)[C@@]2(C)CC1` returned a CC50 in data set [1] of over 1100 µM. The IC50 in data set [2] and in data set [3] was over 1100 µM throughout.
In data set [1], `C[C@H](C[C@H](OC(=O)/C=C/c1ccccc1)[C@@H](OC(=O)/C=C/c1ccccc1)C(C)(C)OC(=O)/C=C/c1ccccc1)C1=C2C[C@H](OC(=O)/C=C/c3ccccc3)[C@H]3[C@@]4(C)CCC(=O)C(C)(C)[C@@H]4CC[C@]3(C)[C@@]2(C)CC1` showed a CC50 of over 1200 µM. Besides, the IC50 in data set [2] and in data set [3] was over 1200 µM each time.
For `C[C@H](C[C@H](OC(=O)COc1ccccc1)[C@@H](OC(=O)COc1ccccc1)C(C)(C)OC(=O)COc1ccccc1)C1=C2C[C@H](OC(=O)COc3ccccc3)[C@H]3[C@@]4(C)CCC(=O)C(C)(C)[C@@H]4CC[C@]3(C)[C@@]2(C)CC1`, the CC50 in data set [1] is over 1400 µM. For the same molecule, the IC50 in data set [2] and in data set [3] was over 1400 µM in each case.
In turn, `C[C@H](C[C@H](OC(=O)/C=C/c1ccccc1Cl)[C@@H](OC(=O)/C=C/c1ccccc1Cl)C(C)(C)OC(=O)/C=C/c1ccccc1Cl)C1=C2C[C@H](OC(=O)/C=C/c3ccccc3Cl)[C@H]3[C@@]4(C)CCC(=O)C(C)(C)[C@@H]4CC[C@]3(C)[C@@]2(C)CC1` showed a CC50 in data set [1] of over 1400 µM. In addition, the IC50 in data set [2] and in data set [3] was over 1400 µM in each case.
`C[C@H](C[C@H](OC(=O)CN1C(=O)c2ccccc2C1=O)[C@@H](OC(=O)CN1C(=O)c2ccccc2C1=O)C(C)(C)OC(=O)CN1C(=O)c2ccccc2C1=O)C1=C2C[C@H](OC(=O)CN3C(=O)c4ccccc4C3=O)[C@H]3[C@@]4(C)CCC(=O)C(C)(C)[C@@H]4CC[C@]3(C)[C@@]2(C)CC1` yielded a CC50 in data set [1] of over 1300 µM. The IC50 in data set [2] and in data set [3] was over 1300 µM in each case.
Molecule `CCCC(=O)O[C@@H](C[C@@H](C)[C@]12CC[C@@]3(C)[C@@]1(C[C@H](OC(=O)CCC)[C@H]1[C@@]4(C)CCC(=O)C(C)(C)[C@@H]4CC[C@@]13C)O2)[C@@H](OC(=O)CCC)C(C)(C)OC(=O)CCC` showed a CC50 in data set [1] of over 1900 µM. Moreover, the IC50 in data set [2] and in data set [3] was over 1900 µM each time.
On to `CCCCC(=O)O[C@@H](C[C@@H](C)C1=C2C[C@H](OC(=O)CCCC)[C@H]3[C@@]4(C)CCC(=O)C(C)(C)[C@@H]4CC[C@]3(C)[C@@]2(C)CC1)[C@@H](OC(=O)CCCC)C(C)(C)OC(=O)CCCC`, for which the CC50 in data set [1] was over 1400 µM. Also, the IC50 in data set [2] and in data set [3] was over 1400 µM throughout.
Molecule `C[C@H](C[C@H](OC(=O)CCC1CCCCC1)[C@@H](OC(=O)CCC1CCCCC1)C(C)(C)OC(=O)CCC1CCCCC1)C1=C2C[C@H](OC(=O)CCC3CCCCC3)[C@H]3[C@@]4(C)CCC(=O)C(C)(C)[C@@H]4CC[C@]3(C)[C@@]2(C)CC1` registered a CC50 in data set [1] of over 1700 µM. For the same molecule, the IC50 in data set [2] and in data set [3] was over 1700 µM throughout.
With `C[C@H](C[C@H](OC(=O)C1CC1)[C@@H](OC(=O)C1CC1)C(C)(C)OC(=O)C1CC1)C1=C2C[C@H](OC(=O)C3CC3)[C@H]3[C@@]4(C)CCC(=O)C(C)(C)[C@@H]4CC[C@]3(C)[C@@]2(C)CC1`, the CC50 in data set [1] is over 2100 µM. Further, the IC50 in data set [2] and in data set [3] was over 2100 µM in each case.
The molecule `C[C@H](C[C@H](OC(=O)c1ccccc1)[C@@H](OC(=O)c1ccccc1)C(C)(C)OC(=O)c1ccccc1)C1=C2C[C@H](OC(=O)c3ccccc3)[C@H]3[C@@]4(C)CCC(=O)C(C)(C)[C@@H]4CC[C@]3(C)[C@@]2(C)CC1` showed a CC50 in data set [1] of over 1400 µM. Moreover, the IC50 in data set [2] and in data set [3] was over 1400 µM in each case.
In data set [1], `C[C@H](C[C@H](OC(=O)c1ccc(Cl)cc1Cl)[C@@H](OC(=O)c1ccc(Cl)cc1Cl)C(C)(C)OC(=O)c1ccc(Cl)cc1Cl)C1=C2C[C@H](OC(=O)c3ccc(Cl)cc3Cl)[C@H]3[C@@]4(C)CCC(=O)C(C)(C)[C@@H]4CC[C@]3(C)[C@@]2(C)CC1` returned a CC50 of over 1000 µM. The IC50 in data set [2] and in data set [3] was over 1000 µM in each case.
As to `C[C@H](C[C@H](OC(=O)COc1cc(Cl)c(Cl)cc1Cl)[C@@H](OC(=O)COc1cc(Cl)c(Cl)cc1Cl)C(C)(C)OC(=O)COc1cc(Cl)c(Cl)cc1Cl)C1=C2C[C@H](OC(=O)COc3cc(Cl)c(Cl)cc3Cl)[C@H]3[C@@]4(C)CCC(=O)C(C)(C)[C@@H]4CC[C@]3(C)[C@@]2(C)CC1`, in data set [1], the CC50 is over 1200 µM. The IC50 in data set [2] and in data set [3] was over 1200 µM in each case.
Regarding `CC(=O)OC(C)(C)[C@H](OC(=O)c1ccccc1)[C@H](C[C@@H](C)C1=C2C[C@H](OC(=O)c3ccccc3)[C@H]3[C@@]4(C)CCC(=O)C(C)(C)[C@@H]4CC[C@]3(C)[C@@]2(C)CC1)OC(=O)c1ccccc1`, the CC50 in data set [1] was over 1700 µM. The IC50 in data set [2] and in data set [3] was over 1700 µM in each case.
In turn, `C[C@H](C[C@H](OC(=O)c1ccccc1)[C@@H](OC(=O)c1ccccc1)C(C)(C)OC(=O)c1ccccc1)[C@]12CC[C@@]3(C)[C@@]1(C[C@H](OC(=O)c1ccccc1)[C@H]1[C@@]4(C)CCC(=O)C(C)(C)[C@@H]4CC[C@@]13C)O2` yielded a half-maximal cytotoxic concentration (CC50) in data set [1] of over 1700 µM. Moreover, the IC50 in data set [2] was over 1700 µM; in data set [3] it was 1100 µM. Also, the “Ratio CC50/IC50” value in data set [4] was over 1.5.

The values are drawn from ChEMBL document CHEMBL1154649, “Anti-HBV agents. Part 3: preliminary structure-activity relationships of tetra-acylalisol A derivatives as potent hepatitis B virus inhibitors” (Bioorg Med Chem Lett, 2009).
